Reference: PubChem BioAssay AID220 (DTP/NCI, 2004)
Several values for one entry are separate records, joined by “and”; a condition that tells them apart may be missing. Equal entries are not always repeated. Inconclusive results are not listed.

Tested on: CD8F1 mice, subcutaneous mammary adenocarcinoma, T/C%
Assay: NCI In Vivo Anticancer Drug Screen. Data for tumor model Mammary Adenocarcinoma CD8F1 (subcutaneous) in CD8F1
Details: higher = larger tumour
Protocol: The antitumor activity of compounds was measured in mice bearing transplantable tumors. Survival or tumor size were measured and the results are expressed as the measurement made in the treated group (T) divided by the measurement made in the vehicle treated control group (C). The tumor model used in this assay is Mammary Adenocarcinoma CD8F1 (subcutaneous) in CD8F1

[1] = endpoint: median tumor weight (est.), dose: 25.0 mg/kg/injection, schedule: Q07DX005 (ip), vehicle: Klucel (hydroxypropylcellulose) (HPC)
[2] = endpoint: median tumor weight (est.), dose: 50.0 mg/kg/injection, schedule: Q07DX005 (ip), vehicle: Klucel (hydroxypropylcellulose) (HPC)
[3] = endpoint: median tumor weight (est.), dose: 100.0 mg/kg/injection, schedule: Q07DX005 (ip), vehicle: Klucel (hydroxypropylcellulose) (HPC)
[4] = endpoint: median tumor weight (est.), dose: 400.0 mg/kg/injection, schedule: Q07DX005 (ip), vehicle: Klucel (hydroxypropylcellulose) (HPC)
[5] = endpoint: median tumor weight (est.), dose: 3.12 mg/kg/injection, schedule: Q07DX005 (ip), vehicle: saline
[6] = endpoint: median tumor weight (est.), dose: 6.25 mg/kg/injection, schedule: Q07DX005 (ip), vehicle: saline
[7] = endpoint: median tumor weight (est.), dose: 12.5 mg/kg/injection, schedule: Q07DX005 (ip), vehicle: saline
[8] = endpoint: median tumor weight (est.), dose: 50.0 mg/kg/injection, schedule: Q07DX005 (ip), vehicle: saline
[9] = endpoint: median tumor weight (est.), dose: 12.5 mg/kg/injection, schedule: Q07DX005 (ip), vehicle: Klucel (hydroxypropylcellulose) (HPC)
[10] = endpoint: median tumor weight (est.), dose: 25.0 mg/kg/injection, schedule: Q07DX005 (ip), vehicle: saline

With `CC1=NNC(=O)C1CCO` (stereo unspecified) the T/C (endpoint: median tumor weight change, dose: 450.0 mg/kg/injection, schedule: Q01DX001 (ip), vehicle: Klucel (hydroxypropylcellulose) (HPC)) was 102 % of control, the T/C (endpoint: median tumor weight change, dose: 900.0 mg/kg/injection, schedule: Q01DX001 (ip), vehicle: Klucel (hydroxypropylcellulose) (HPC)) was 157 % of control and the T/C (endpoint: median tumor weight change, dose: 1800.0 mg/kg/injection, schedule: Q01DX001 (ip), vehicle: Klucel (hydroxypropylcellulose) (HPC)) was 189 % of control. The T/C (endpoint: median tumor weight change, dose: 3600.0 mg/kg/injection, schedule: Q01DX001 (ip), vehicle: Klucel (hydroxypropylcellulose) (HPC)) was 80 % of control.

With `C(C#CCN1CCOCC1)#CCN1CCOCC1` the T/C [1] was 181 % of control, the T/C [2] was 43 % of control and the T/C [3] was 48 % of control. The T/C (endpoint: median tumor weight (est.), dose: 200.0 mg/kg/injection, schedule: Q07DX005 (ip), vehicle: Klucel (hydroxypropylcellulose) (HPC)) was 41 % of control, the T/C [4] was 68 % of control and the T/C (endpoint: median tumor weight (est.), dose: 800.0 mg/kg/injection, schedule: Q07DX005 (ip), vehicle: Klucel (hydroxypropylcellulose) (HPC)) was 62 % of control.

With `COC1=C(N)C(=O)c2nc(-c3nc(C(=O)O)c(C)c(-c4ccc(OC)c(OC)c4O)c3N)ccc2C1=O` the T/C (endpoint: median tumor weight (est.), dose: 0.1 mg/kg/injection, schedule: Q07DX005 (ip), vehicle: Klucel (hydroxypropylcellulose) (HPC)) was 69 % of control, the T/C (endpoint: median tumor weight (est.), dose: 0.1 mg/kg/injection, schedule: Q07DX005 (ip), vehicle: saline) was 16 % of control and 34 % of control and the T/C (endpoint: median tumor weight (est.), dose: 0.12 mg/kg/injection, schedule: Q07DX005 (ip), vehicle: Klucel (hydroxypropylcellulose) (HPC)) was 10 % of control. The T/C (endpoint: median tumor weight (est.), dose: 0.2 mg/kg/injection, schedule: Q07DX005 (ip), vehicle: Klucel (hydroxypropylcellulose) (HPC)) was 12 % of control, the T/C (endpoint: median tumor weight (est.), dose: 0.2 mg/kg/injection, schedule: Q07DX005 (ip), vehicle: saline) was 11 % of control and 20 % of control and the T/C (endpoint: median tumor weight (est.), dose: 0.4 mg/kg/injection, schedule: Q07DX005 (ip), vehicle: Klucel (hydroxypropylcellulose) (HPC)) was 7 % of control. For the same compound, the T/C (endpoint: median tumor weight (est.), dose: 0.4 mg/kg/injection, schedule: Q07DX005 (ip), vehicle: saline) was 3 % of control and the T/C (endpoint: median tumor weight change, dose: 0.5 mg/kg/injection, schedule: Q01DX001 (ip), vehicle: Klucel (hydroxypropylcellulose) (HPC)) was 32 % of control and 41 % of control.

For `CCCCNc1ccc2nnc(C)n2n1`, the T/C (endpoint: median tumor weight change, dose: 62.5 mg/kg/injection, schedule: Q01DX001 (ip), vehicle: DMSO) was 111 % of control and the T/C (endpoint: median tumor weight change, dose: 125.0 mg/kg/injection, schedule: Q01DX001 (ip), vehicle: DMSO) was 118 % of control.

With `OCCN1CCN(CCCN2c3ccccc3Sc3ccc(C(F)(F)F)cc32)CC1` the T/C [5] was 85 % of control and 109 % of control, the T/C [6] was 107 % of control and 122 % of control and the T/C [7] was 80 % of control and 83 % of control. The T/C [8] was 47 % of control and 48 % of control.

In the case of `O=C(NO)c1ccc(O)c(O)c1`, the T/C (endpoint: median tumor weight change, dose: 300.0 mg/kg/injection, schedule: Q01DX001 (ip), vehicle: water) is reported as 89 % of control and the T/C (endpoint: median tumor weight change, dose: 600.0 mg/kg/injection, schedule: Q01DX001 (ip), vehicle: water) is reported as 48 % of control.

With `CNC(=O)OCc1c(COC(=O)NC)c(-c2ccc(Cl)c(Cl)c2)n2c1Cc1ccccc1C2` the T/C (endpoint: median tumor weight change, dose: 125.0 mg/kg/injection, schedule: Q01DX001 (ip), vehicle: distilled water + Tween-80) was 77 % of control, the T/C (endpoint: median tumor weight change, dose: 250.0 mg/kg/injection, schedule: Q01DX001 (ip), vehicle: distilled water + Tween-80) was 67 % of control and the T/C (endpoint: median tumor weight change, dose: 500.0 mg/kg/injection, schedule: Q01DX001 (ip), vehicle: distilled water + Tween-80) was -12 % of control. The T/C (endpoint: median tumor weight change, dose: 1000.0 mg/kg/injection, schedule: Q01DX001 (ip), vehicle: distilled water + Tween-80) was -53 % of control and the T/C (endpoint: median tumor weight change, dose: 2000.0 mg/kg/injection, schedule: Q01DX001 (ip), vehicle: distilled water + Tween-80) was -71 % of control.

With `CNC(=O)OCc1c(COC(=O)NC)c(C)n(-c2ccc(OC)cc2)c1C` the T/C (endpoint: median tumor weight (est.), dose: 6.25 mg/kg/injection, schedule: Q07DX005 (ip), vehicle: Klucel (hydroxypropylcellulose) (HPC)) was 113 % of control, the T/C [9] was 90 % of control and the T/C [1] was 152 % of control. For the same compound, the T/C [2] was 23 % of control, the T/C [3] was 24 % of control and the T/C (endpoint: median tumor weight change, dose: 50.0 mg/kg/injection, schedule: Q01DX001 (ip), vehicle: Klucel (hydroxypropylcellulose) (HPC)) was 109 % of control. The T/C (endpoint: median tumor weight change, dose: 200.0 mg/kg/injection, schedule: Q01DX001 (ip), vehicle: Klucel (hydroxypropylcellulose) (HPC)) was 79 % of control and the T/C (endpoint: median tumor weight change, dose: 400.0 mg/kg/injection, schedule: Q01DX001 (ip), vehicle: Klucel (hydroxypropylcellulose) (HPC)) was 52 % of control.

In the case of `O=C([CH-]C(=O)C(F)(F)F)c1ccccc1.O=C([CH-]C(=O)C(F)(F)F)c1ccccc1.O=C([CH-]C(=O)C(F)(F)F)c1ccccc1.O=C([CH-]C(=O)C(F)(F)F)c1ccccc1.[Eu+3].c1ccncc1`, the T/C [9] is reported as 109 % of control, the T/C [1] is reported as 109 % of control and the T/C [2] is reported as 103 % of control. The T/C [3] was 95 % of control and the T/C [4] was 110 % of control.

With `O=c1[nH]c(=O)n(C2OC(CO)C(O)C2O)cc1F` (stereo unspecified) the T/C (endpoint: median tumor weight (est.), dose: 1.56 mg/kg/injection, schedule: Q07DX005 (ip), vehicle: saline) was 79 % of control, the T/C [5] was 103 % of control and the T/C [6] was 75 % of control. The T/C [7] was 45 % of control and the T/C [10] was 11 % of control.

For `CC(=O)OCC1OC(OC(C)=O)C(NC(=O)N(CCCl)N=O)C(OC(C)=O)C1OC(C)=O` (stereo unspecified), the T/C (endpoint: median tumor weight (est.), dose: 1.5 mg/kg/injection, schedule: Q07DX005 (ip), vehicle: Klucel (hydroxypropylcellulose) (HPC)) was 61 % of control and the T/C (endpoint: median tumor weight (est.), dose: 3.0 mg/kg/injection, schedule: Q07DX005 (ip), vehicle: Klucel (hydroxypropylcellulose) (HPC)) was 41 % of control and 63 % of control and 66 % of control.

For `NNC(=S)N/N=C/c1ccccn1`, the T/C (endpoint: median tumor weight (est.), dose: 6.25 mg/kg/injection, schedule: Q07DX005 (ip), vehicle: saline with Tween-80) was 112 % of control, the T/C (endpoint: median tumor weight (est.), dose: 12.5 mg/kg/injection, schedule: Q07DX005 (ip), vehicle: saline with Tween-80) was 84 % of control and the T/C (endpoint: median tumor weight (est.), dose: 25.0 mg/kg/injection, schedule: Q07DX005 (ip), vehicle: saline with Tween-80) was 81 % of control. The T/C (endpoint: median tumor weight (est.), dose: 50.0 mg/kg/injection, schedule: Q07DX005 (ip), vehicle: saline with Tween-80) was 59 % of control.

`CC(=O)OC1=NC(C)c2c1cc(OC(C)=O)[nH]c2=O` (stereo unspecified) was tested, and the T/C [9] was 86 % of control, the T/C [1] was 168 % of control and the T/C [2] was 111 % of control.

With `CC1CCC2N(C1)CC1C3CC4C(CC(=O)C5CC(O)CCC54C)C3CCC1C2(C)O` (stereo unspecified) the T/C (endpoint: mean tumor weight, dose: 2.5 mg/kg/injection, schedule: Q07DX006 (ip), vehicle: saline with Tween-80) was 87 % of control, the T/C (endpoint: mean tumor weight, dose: 5.0 mg/kg/injection, schedule: Q07DX006 (ip), vehicle: saline with Tween-80) was 81 % of control and the T/C (endpoint: mean tumor weight, dose: 10.0 mg/kg/injection, schedule: Q07DX006 (ip), vehicle: saline with Tween-80) was 90 % of control. The T/C (endpoint: mean tumor weight, dose: 20.0 mg/kg/injection, schedule: Q07DX006 (ip), vehicle: saline with Tween-80) was 89 % of control.

For `O=C1C=C[C@H](O)[C@@]2(CO)O[C@@H]12`, the T/C (endpoint: median tumor weight change, dose: 3.12 mg/kg/injection, schedule: Q01DX001 (ip), vehicle: saline with Tween-80) was 65 % of control, the T/C (endpoint: median tumor weight change, dose: 6.25 mg/kg/injection, schedule: Q01DX001 (ip), vehicle: saline with Tween-80) was 61 % of control and the T/C (endpoint: median tumor weight change, dose: 12.5 mg/kg/injection, schedule: Q01DX001 (ip), vehicle: saline with Tween-80) was 90 % of control.

For `Nc1nc(=O)n(C2OC(CO)C(O)C2O)cc1F` (stereo unspecified), the T/C [7] was 91 % of control, the T/C [10] was 93 % of control and the T/C [8] was 61 % of control. For the same compound, the T/C (endpoint: median tumor weight (est.), dose: 100.0 mg/kg/injection, schedule: Q07DX005 (ip), vehicle: saline) was 78 % of control, the T/C (endpoint: median tumor weight (est.), dose: 200.0 mg/kg/injection, schedule: Q07DX005 (ip), vehicle: saline) was 46 % of control and the T/C (endpoint: median tumor weight (est.), dose: 400.0 mg/kg/injection, schedule: Q07DX005 (ip), vehicle: saline) was 34 % of control.
